# Target: T1, human full-length HSP90 (Homo sapiens, UniProt P08238)
# T1 construct: E. coli expressed human full-length HSP90 protein, purified >95%; made in house; host or cells: E. coli
# Experiment: Fluorescence polarization assay (competitive displacement of probe RBT0051001-FAM from HSP90)
# Type: binding
# Conditions: activity range stated in each example; read-out: activity in the fluorescence polarization assay
# Excerpt: Fluorescence Polarization Assay
# Fluorescence polarization {also known as fluorescence anisotropy} measures the rotation of a fluorescing species in solution, where the larger molecule the more polarized the fluorescence emission. When the fluorophore is excited with polarized light, the emitted light is also polarized. The molecular size is proportional to the polarization of the fluorescence emission.
# The fluoroscein-labelled probe —RBT0051001-FAM—
# binds to HSP90 {full-length human, full-length yeast or N-terminal domain HSP90} and the anisotropy {rotation of the probe:protein complex} is measured.
# Test compound is added to the assay plate, left to equilibrate and the anisotropy measured again. Any change in anisotropy is due to competitive binding of compound to HSP90, thereby releasing probe.
# Chemicals are of the highest purity commercially available and all aqueous solutions are made up in AR water. • 1) Costar 96-well black assay plate #3915 • 2) Assay buffer of (a) 100 mM Tris pH7.4; (b) 20 mM KCl; (c) 6 mM MgCl2. Stored at room temperature. • 3) BSA (bovine serum albumen) 10 mg/ml (New England Biolabs # B9001S) • 4) 20 mM probe in 100% DMSO stock concentration. Stored in the dark at RT. Working concentration is 200 nM diluted in AR water and stored at 4° C. Final concentration in assay 80 nM. • 5) E. coli expressed human full-length HSP90 protein, purified >95% (see, e.g., Panaretou et al., 1998) and stored in 50 μL aliquots at −80° C.
# • 1) Add 100 μl 1× buffer to wells 11A and 12A (=FP BLNK) • 2) Prepare assay mix—all reagents are kept on ice with a lid on the bucket as the probe is light-sensitive.
# • 3) Aliquot 100 μl assay mix to all other wells • 4) Seal plate and leave in dark at room temp for 20 minutes to equilibrate Compound Dilution Plate—1×3 dilution series • 1) In a clear 96-well v-bottom plate-{# VWR 007/008/257} add 10 μl 100% DMSO to wells B1 to H11 • 2) To wells A1 to A11 add 17.5 μl 100% DMSO • 3) Add 2.5 μl cpd to A1. This gives 2.5 mM {50×} stock cpd-assuming cpds 20 mM. • 4) Repeat for wells A2 to A10. Control in columns 11 and 12. • 5) Transfer 5 μl from row A to row B—not column 12. Mix well. • 6) Transfer 5 μl from row B to row C. […] In column 11 {provides standard curve} only add compound B11-H11. Add 2 μl of 100 mM standard cpd to wells B12-H12 {is positive control} • 13) The Z′ factor is calculated from zero controls and positive wells. It typically gives a value of 0.7-0.9.
# The compounds tested in the above assay were assigned to one of two activity ranges, namely A=<10 μM; B=>10 μM, and those assignments are reported above.
# T1 sequence (P08238 whole entry): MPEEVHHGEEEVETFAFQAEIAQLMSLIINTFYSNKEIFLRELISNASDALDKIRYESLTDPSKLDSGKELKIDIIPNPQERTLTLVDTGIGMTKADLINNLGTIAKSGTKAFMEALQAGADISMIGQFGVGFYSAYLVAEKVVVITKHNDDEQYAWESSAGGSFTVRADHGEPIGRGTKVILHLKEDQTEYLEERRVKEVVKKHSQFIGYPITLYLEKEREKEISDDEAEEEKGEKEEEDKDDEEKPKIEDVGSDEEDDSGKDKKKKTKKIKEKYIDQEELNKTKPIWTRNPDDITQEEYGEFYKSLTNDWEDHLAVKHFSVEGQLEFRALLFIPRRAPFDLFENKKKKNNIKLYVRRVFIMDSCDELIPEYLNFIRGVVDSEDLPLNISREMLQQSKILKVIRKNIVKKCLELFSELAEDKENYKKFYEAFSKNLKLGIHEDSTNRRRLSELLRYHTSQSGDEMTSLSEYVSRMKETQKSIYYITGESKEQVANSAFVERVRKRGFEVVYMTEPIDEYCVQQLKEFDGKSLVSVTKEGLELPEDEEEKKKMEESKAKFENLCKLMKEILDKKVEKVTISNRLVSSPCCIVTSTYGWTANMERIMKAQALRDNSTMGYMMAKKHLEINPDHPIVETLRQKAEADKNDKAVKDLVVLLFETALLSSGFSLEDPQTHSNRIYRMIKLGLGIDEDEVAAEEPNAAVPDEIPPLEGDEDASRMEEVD
row,SMILES,IC50
1,"CN1CCN(NC(=O)c2cc3c(-c4ccc(Cl)cc4Cl)nc(N)nc3s2)CC1 [Example 12, 2-Amino-4-(2,4-dichloro-phenyl)-thieno[2,3-d]pyrimidine-6-carboxylic acid (4-methyl-piperazin-1-yl) amide]",< 10 µM
2,"Cc1ccc(-c2nc(N)nc3sc(C4=NCCN4)cc23)c(C)c1 [Example 11, 6-(4,5-Dihydro-1H-imidazol-2-yl)-4-(2,4-dimethyl-phenyl)-thieno[2,3-d]pyrimidin-2-ylamine]",< 10 µM
3,"Cc1ccc(-c2nc(N)nc3sc(-c4ncon4)cc23)c(C)c1 [Example 10, 4-(2,4-dimethyl-phenyl)-6-[1,2,4]oxadiazol-3-yl-thieno[2,3-d]pyrimidin-2-ylamine]",< 10 µM
4,"Nc1nc(-c2ccc(Cl)cc2Cl)c2cc(C(=O)c3ccccc3)sc2n1 [Example 9, [2-Amino-4-(2,4-dichloro-phenyl)-thieno[2,3-d]pyrimidine-6-yl]-phenyl-methanone]",< 10 µM
5,"Nc1nc(-c2ccc(Cl)cc2Cl)c2cc(C(O)(c3ccccc3)c3ccccc3)sc2n1 [Example 5, [2-Amino-4-(2,4-dichloro-phenyl)-thieno[2,3-d]pyrimidin-6-yl]-diphenyl-methanol]",> 10 µM

# Test system: not listed separately
# Experiment: Sulforhodamine B (SRB) growth inhibition / growth arrest assay
# Type: cell-based
# Conditions: cell line not stated
# Experimental: A growth inhibition assay was also employed for the evaluation of candidate HSP90 inhibitors:
# Assessment of cytotoxicity by Sulforhodamine B (SRB) assay: calculation of 50% inhibitory concentration (IC50).
# • 1) Determine cell number by haemocytometer. • 2) Using an 8 channel multipipettor, add 160 μl of the cell suspension (3600 cells/well or 2×10^4 cells/ml) to each well of a 96-well microtitre plate. • 3) Incubate overnight at 37° C. in a CO2 incubator. […]
# • 8) Tip off medium into sink and immerse plate slowly into 10% ice cold trichloroacetic acid (TCA). […] Leave for 15 mins. • 12) Wash off unbound SRB stain with four washes of 1% acetic acid. • 13) Dry plates in incubator. • 14) Solubilise SRB using 100 μl of 10 mM Tris base and put plates on plate shaker for 5 mins. • 15) Determine absorbance at 540 nm using a plate reader. Calculate mean absorbance for quadruplicate wells and express as a percentage of value for control, untreated wells. • 16) Plot % absorbance values versus log drug concentration and determine the IC50.
row,SMILES,IC50
1,"Cc1ccc(-c2nc(N)nc3sc(-c4ncon4)cc23)c(C)c1 [Example 10, 4-(2,4-dimethyl-phenyl)-6-[1,2,4]oxadiazol-3-yl-thieno[2,3-d]pyrimidin-2-ylamine]",< 50 µM
